Measured values: BindingDB's records for doi:10.1016/S0893-133X(98)00099-2 (University of North Carolina, 1999)
pKi: −log10 of the molar value. “And” between values parts separate entries of the source, which are not always exact repeats. Identical values can stand only once.

Tests used:
[1] = molecular target: T1, D(4) dopamine receptor (Rattus norvegicus, UniProt P30729)
T1 sequence (P30729 whole entry): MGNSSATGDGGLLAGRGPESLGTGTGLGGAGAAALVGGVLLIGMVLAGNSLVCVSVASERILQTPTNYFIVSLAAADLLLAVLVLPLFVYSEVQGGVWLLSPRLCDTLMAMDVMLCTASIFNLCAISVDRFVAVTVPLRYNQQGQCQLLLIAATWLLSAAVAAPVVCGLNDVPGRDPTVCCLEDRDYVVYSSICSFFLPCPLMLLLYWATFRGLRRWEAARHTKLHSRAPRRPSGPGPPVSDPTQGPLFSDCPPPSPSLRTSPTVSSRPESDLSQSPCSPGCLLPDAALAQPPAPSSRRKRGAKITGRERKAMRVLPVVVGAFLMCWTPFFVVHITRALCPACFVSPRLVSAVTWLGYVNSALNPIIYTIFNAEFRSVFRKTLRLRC

[2] = molecular target: D(3) dopamine receptor (Rattus norvegicus, UniProt P19020)
[3] = molecular target: 5-hydroxytryptamine receptor 6 (Rattus norvegicus, UniProt P31388)
[4] = molecular target: D(1B) dopamine receptor (Rattus norvegicus, UniProt P25115)
[5] = molecular target: D(1A) dopamine receptor (Rattus norvegicus, UniProt P18901)
[6] = molecular target: 5-hydroxytryptamine receptor 7 (Rattus norvegicus, UniProt P32305)
5-hydroxytryptamine receptor 7, sequence (P32305 whole entry): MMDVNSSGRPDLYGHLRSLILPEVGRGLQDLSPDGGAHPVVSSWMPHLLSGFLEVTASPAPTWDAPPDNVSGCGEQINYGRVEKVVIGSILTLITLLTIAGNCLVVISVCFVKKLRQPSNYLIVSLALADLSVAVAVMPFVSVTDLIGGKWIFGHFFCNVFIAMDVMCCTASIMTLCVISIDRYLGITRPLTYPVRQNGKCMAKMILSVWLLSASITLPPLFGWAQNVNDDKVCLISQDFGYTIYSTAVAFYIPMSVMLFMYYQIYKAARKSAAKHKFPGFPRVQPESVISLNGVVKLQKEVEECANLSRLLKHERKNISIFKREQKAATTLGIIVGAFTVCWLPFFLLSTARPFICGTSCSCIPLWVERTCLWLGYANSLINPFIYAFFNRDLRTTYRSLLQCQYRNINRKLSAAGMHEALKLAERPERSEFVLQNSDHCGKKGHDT

D(3) dopamine receptor, sequence (P19020 whole entry): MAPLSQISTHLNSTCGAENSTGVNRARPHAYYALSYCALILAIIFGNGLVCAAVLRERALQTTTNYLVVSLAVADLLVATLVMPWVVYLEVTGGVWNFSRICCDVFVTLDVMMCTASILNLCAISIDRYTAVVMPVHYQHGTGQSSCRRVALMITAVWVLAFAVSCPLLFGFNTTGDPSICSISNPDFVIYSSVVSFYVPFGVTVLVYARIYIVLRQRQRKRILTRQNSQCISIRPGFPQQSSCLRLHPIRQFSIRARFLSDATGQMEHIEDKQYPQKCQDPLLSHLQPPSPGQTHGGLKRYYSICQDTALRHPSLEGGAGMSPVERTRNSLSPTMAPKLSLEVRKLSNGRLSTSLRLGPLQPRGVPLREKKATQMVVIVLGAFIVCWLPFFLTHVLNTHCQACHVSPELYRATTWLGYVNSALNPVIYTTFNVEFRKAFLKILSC
5-hydroxytryptamine receptor 6, sequence (P31388 whole entry): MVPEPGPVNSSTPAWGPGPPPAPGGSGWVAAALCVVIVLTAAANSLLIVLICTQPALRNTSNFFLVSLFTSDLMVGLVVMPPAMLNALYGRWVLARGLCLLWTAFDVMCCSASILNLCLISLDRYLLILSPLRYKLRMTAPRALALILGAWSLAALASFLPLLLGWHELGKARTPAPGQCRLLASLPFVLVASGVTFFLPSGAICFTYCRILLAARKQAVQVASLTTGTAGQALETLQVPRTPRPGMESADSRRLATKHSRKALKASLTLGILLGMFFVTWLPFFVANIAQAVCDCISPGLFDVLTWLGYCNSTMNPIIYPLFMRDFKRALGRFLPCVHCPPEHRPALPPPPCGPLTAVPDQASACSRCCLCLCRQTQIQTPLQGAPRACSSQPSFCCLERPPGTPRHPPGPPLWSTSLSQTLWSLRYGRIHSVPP
D(1A) dopamine receptor, sequence (P18901 whole entry): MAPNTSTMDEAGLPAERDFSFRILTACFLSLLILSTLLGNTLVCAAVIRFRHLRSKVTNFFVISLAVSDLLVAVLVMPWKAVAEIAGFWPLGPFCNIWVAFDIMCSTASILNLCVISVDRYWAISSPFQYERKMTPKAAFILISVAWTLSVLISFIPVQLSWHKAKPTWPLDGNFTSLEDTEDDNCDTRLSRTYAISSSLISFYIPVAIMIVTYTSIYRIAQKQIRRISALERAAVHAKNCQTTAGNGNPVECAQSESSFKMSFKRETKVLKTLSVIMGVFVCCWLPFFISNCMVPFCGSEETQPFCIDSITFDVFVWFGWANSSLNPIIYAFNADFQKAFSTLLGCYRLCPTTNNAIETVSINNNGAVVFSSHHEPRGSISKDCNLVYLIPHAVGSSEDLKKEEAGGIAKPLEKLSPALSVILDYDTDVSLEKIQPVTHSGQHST
D(1B) dopamine receptor, sequence (P25115 whole entry): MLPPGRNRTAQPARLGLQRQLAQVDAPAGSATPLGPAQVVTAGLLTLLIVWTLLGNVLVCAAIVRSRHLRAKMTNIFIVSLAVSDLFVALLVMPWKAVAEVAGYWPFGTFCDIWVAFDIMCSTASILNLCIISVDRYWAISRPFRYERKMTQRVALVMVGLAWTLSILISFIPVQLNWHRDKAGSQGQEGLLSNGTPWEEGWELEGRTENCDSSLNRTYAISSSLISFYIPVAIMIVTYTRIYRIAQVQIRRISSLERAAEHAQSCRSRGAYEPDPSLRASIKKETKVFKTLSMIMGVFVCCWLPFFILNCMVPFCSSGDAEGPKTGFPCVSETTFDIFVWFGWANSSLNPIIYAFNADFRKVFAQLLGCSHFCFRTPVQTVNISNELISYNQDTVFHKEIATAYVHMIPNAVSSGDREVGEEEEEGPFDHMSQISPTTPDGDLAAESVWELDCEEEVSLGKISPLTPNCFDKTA

SMILES | pKi [1] | pKi [2] | pKi [3] | pKi [4] | pKi [5] | pKi [6]
CCc1cc(Cl)c(OC)c(C(=O)NC[C@@H]2CCCN2CC)c1O [3-Chloro-5-ethyl-N-((S)-1-ethyl-pyrrolidin-2-ylmethyl)-6-hydroxy-2-methoxy-benzamide] | 7.19 | 9.44 and 9.85 | – | – | – | –
O=C1CCc2ccc(OCCCCN3CCN(c4cccc(Cl)c4Cl)CC3)cc2N1 [7-{4-[4-(2,3-dichlorophenyl)piperazin-1-yl]butoxy}-3,4-dihydroquinolin-2(1H)-one] | – | – | 6.79 | – | – | –
Cc1c(O)ccc(N2CCN(CCCCOc3ccc4c(c3)NC(=O)CC4)CC2)c1C [7-{4-[4-(4-hydroxy-2,3-dimethylphenyl)piperazin-1-yl]butoxy}-1,2,3,4-tetrahydroquinolin-2-one] | 6.92 | 8.35 and 8.79 | – | < 5.00 | 6.34 | 6.66
Cc1cccc(N2CCN(CCCOc3ccc4ccc(=O)[nH]c4c3)CC2)c1C [NSC_163839] | 6.55 | 7.74 and 7.09 | 6.17 | < 5.00 | < 5.00 | 7.66
